Laboratory results from PubChem BioAssay (NCI).
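Method: 48-hour compound exposure of cells in 96-well plates, five concentrations, linear interpolation of endpoints. Definition used: TGI = concentration required for complete inhibition of growth.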

Experiments:
Experiment in all cases: DTP human tumour cell line panel, 48 h
TK-10 renal = tested on: TK-10 renal
SF-268 CNS = tested on: SF-268 CNS
HT29 colon = tested on: HT29 colon
HCT-15 colon = tested on: HCT-15 colon
NCI-H23 lung = tested on: NCI-H23 lung
NCI-H460 lung = tested on: NCI-H460 lung
OVCAR-5 ovarian = tested on: OVCAR-5 ovarian
SN12C renal = tested on: SN12C renal
SW-620 colon = tested on: SW-620 colon
MDA-MB-435 = tested on: MDA-MB-435
HOP-92 NSCLC = tested on: HOP-92 NSCLC
NCI-H226 lung = tested on: NCI-H226 lung
PC-3 prostate = tested on: PC-3 prostate
SK-MEL-28 melanoma = tested on: SK-MEL-28 melanoma
MCF7 breast = tested on: MCF7 breast
SR leukemia = tested on: SR leukemia
T-47D breast = tested on: T-47D breast
KM12 colon = tested on: KM12 colon
UACC-62 melanoma = tested on: UACC-62 melanoma
CAKI-1 renal = tested on: CAKI-1 renal
HOP-62 NSCLC = tested on: HOP-62 NSCLC
HL-60(TB) leukemia = tested on: HL-60(TB) leukemia
BT-549 breast = tested on: BT-549 breast
SK-OV-3 ovarian = tested on: SK-OV-3 ovarian
MDA-N = tested on: MDA-N
HCT-116 colon = tested on: HCT-116 colon
A549 NSCLC = tested on: A549 NSCLC
M14 melanoma = tested on: M14 melanoma
K-562 leukemia = tested on: K-562 leukemia
UACC-257 melanoma = tested on: UACC-257 melanoma
SF-539 CNS = tested on: SF-539 CNS
SK-MEL-2 melanoma = tested on: SK-MEL-2 melanoma
OVCAR-8 ovarian = tested on: OVCAR-8 ovarian
A498 renal = tested on: A498 renal
U251 CNS = tested on: U251 CNS
HS 578T breast = tested on: HS 578T breast
SNB-19 CNS = tested on: SNB-19 CNS
EKVX NSCLC = tested on: EKVX NSCLC
NCI-H522 lung = tested on: NCI-H522 lung
NCI/ADR-RES ovarian = tested on: NCI/ADR-RES ovarian
ACHN renal = tested on: ACHN renal
MDA-MB-231 breast = tested on: MDA-MB-231 breast
LOX IMVI melanoma = tested on: LOX IMVI melanoma
SF-295 CNS = tested on: SF-295 CNS
HCC-2998 colon = tested on: HCC-2998 colon
786-0 renal = tested on: 786-0 renal
RPMI-8226 leukemia = tested on: RPMI-8226 leukemia
COLO 205 colon = tested on: COLO 205 colon
RXF 393 renal = tested on: RXF 393 renal
MOLT-4 leukemia = tested on: MOLT-4 leukemia
OVCAR-4 ovarian = tested on: OVCAR-4 ovarian
SNB-75 CNS = tested on: SNB-75 CNS
SK-MEL-5 melanoma = tested on: SK-MEL-5 melanoma
CCRF-CEM leukemia = tested on: CCRF-CEM leukemia
MALME-3M melanoma = tested on: MALME-3M melanoma
IGROV1 ovarian = tested on: IGROV1 ovarian
OVCAR-3 ovarian = tested on: OVCAR-3 ovarian
DU-145 prostate = tested on: DU-145 prostate
UO-31 renal = tested on: UO-31 renal

COC1/C=C/C(C)C(C(C)C(OC)C(C)CCC(=O)C(C)C(CCC(=O)O)OC)OC(=O)/C=C/C=C(\C)CC(OC)CC2=CC(=O)O[C@@H](C(C)C(OC)CC(OC)/C=C/C(C)C(OC)C1)[C@H]2O (some centres not stated)
TGI (TK-10 renal): > 5 µM | TGI (SF-268 CNS): > 2.47 µM | TGI (HT29 colon): > 5 µM | TGI (HCT-15 colon): > 5 µM | TGI (NCI-H23 lung): > 5 µM | TGI (NCI-H460 lung): > 5 µM | TGI (OVCAR-5 ovarian): > 5 µM | TGI (SN12C renal): > 5 µM | TGI (SW-620 colon): > 5 µM | TGI (MDA-MB-435): > 5 µM | TGI (HOP-92 NSCLC): 1.36 µM | TGI (NCI-H226 lung): 2.13 µM | TGI (PC-3 prostate): 2.82 µM | TGI (SK-MEL-28 melanoma): > 3.29 µM | TGI (MCF7 breast): > 5 µM | TGI (SR leukemia): > 4.14 µM | TGI (T-47D breast): > 5 µM | TGI (KM12 colon): > 5 µM | TGI (UACC-62 melanoma): > 4.31 µM | TGI (CAKI-1 renal): 0.934 µM | TGI (HOP-62 NSCLC): > 5 µM | TGI (HL-60(TB) leukemia): 1 µM | TGI (BT-549 breast): 2.85 µM | TGI (SK-OV-3 ovarian): 4.06 µM | TGI (MDA-N): > 5 µM | TGI (HCT-116 colon): > 5 µM | TGI (A549 NSCLC): > 5 µM | TGI (M14 melanoma): > 5 µM | TGI (K-562 leukemia): > 5 µM | TGI (UACC-257 melanoma): > 3.9 µM | TGI (SF-539 CNS): > 5 µM | TGI (SK-MEL-2 melanoma): 1.89 µM | TGI (OVCAR-8 ovarian): > 5 µM | TGI (A498 renal): 0.343 µM | TGI (U251 CNS): 1.39 µM | TGI (HS 578T breast): > 5 µM | TGI (SNB-19 CNS): > 5 µM | TGI (EKVX NSCLC): > 5 µM | TGI (NCI-H522 lung): > 5 µM | TGI (NCI/ADR-RES ovarian): > 5 µM | TGI (ACHN renal): 2.93 µM | TGI (MDA-MB-231 breast): 1.78 µM | TGI (LOX IMVI melanoma): > 3.67 µM | TGI (SF-295 CNS): > 5 µM | TGI (HCC-2998 colon): > 5 µM | TGI (786-0 renal): > 4.55 µM | TGI (RPMI-8226 leukemia): > 3.94 µM | TGI (COLO 205 colon): > 5 µM | TGI (RXF 393 renal): 1.49 µM | TGI (MOLT-4 leukemia): > 3.93 µM | TGI (OVCAR-4 ovarian): > 5 µM | TGI (SNB-75 CNS): 2.22 µM | TGI (SK-MEL-5 melanoma): 2.88 µM | TGI (CCRF-CEM leukemia): > 1.58 µM | TGI (MALME-3M melanoma): 2.94 µM | TGI (IGROV1 ovarian): 0.948 µM | TGI (OVCAR-3 ovarian): 1.72 µM | TGI (DU-145 prostate): > 5 µM

CCCCCCCCCCCCCCCCCCOCC(O)COP(=O)(O)OCC1OC(n2cc(F)c(=O)[nH]c2=O)CC1O (configuration not stated)
TGI (TK-10 renal): 24.6 µM | TGI (SF-268 CNS): 36.5 µM | TGI (HT29 colon): 23.6 µM | TGI (HCT-15 colon): 23.7 µM | TGI (NCI-H23 lung): 16.9 µM | TGI (NCI-H460 lung): 21.1 µM | TGI (OVCAR-5 ovarian): 26.3 µM | TGI (SN12C renal): 27.9 µM | TGI (SW-620 colon): > 61.4 µM | TGI (MDA-MB-435): > 52.1 µM | TGI (HOP-92 NSCLC): 24.2 µM | TGI (NCI-H226 lung): > 53.8 µM | TGI (PC-3 prostate): 18.8 µM | TGI (SK-MEL-28 melanoma): 28.8 µM | TGI (MCF7 breast): 48.3 µM | TGI (SR leukemia): 22.6 µM | TGI (UO-31 renal): 19.6 µM | TGI (T-47D breast): 38.8 µM | TGI (KM12 colon): 51 µM | TGI (UACC-62 melanoma): 9.7 µM | TGI (CAKI-1 renal): 26.8 µM | TGI (HOP-62 NSCLC): 4.88 µM | TGI (HL-60(TB) leukemia): 25.1 µM | TGI (BT-549 breast): 27.3 µM | TGI (SK-OV-3 ovarian): 44.8 µM | TGI (MDA-N): 28.2 µM | TGI (HCT-116 colon): 19.6 µM | TGI (A549 NSCLC): 25.9 µM | TGI (M14 melanoma): 15.5 µM | TGI (K-562 leukemia): 32.1 µM | TGI (UACC-257 melanoma): 32.1 µM | TGI (SF-539 CNS): 12.4 µM | TGI (SK-MEL-2 melanoma): 43.2 µM | TGI (OVCAR-8 ovarian): 18.9 µM | TGI (A498 renal): > 56 µM | TGI (U251 CNS): 22.4 µM | TGI (HS 578T breast): 23.5 µM | TGI (SNB-19 CNS): 25.3 µM | TGI (EKVX NSCLC): > 74.2 µM | TGI (NCI-H522 lung): 27.9 µM | TGI (NCI/ADR-RES ovarian): 22 µM | TGI (ACHN renal): > 41.6 µM | TGI (MDA-MB-231 breast): 36.1 µM | TGI (LOX IMVI melanoma): 15.1 µM | TGI (SF-295 CNS): 19 µM | TGI (HCC-2998 colon): 2.92 µM | TGI (786-0 renal): 17.8 µM | TGI (RPMI-8226 leukemia): 22.5 µM | TGI (COLO 205 colon): 21.9 µM | TGI (RXF 393 renal): 29 µM | TGI (MOLT-4 leukemia): 21.6 µM | TGI (OVCAR-4 ovarian): 32.2 µM | TGI (SNB-75 CNS): 27.8 µM | TGI (SK-MEL-5 melanoma): 24.1 µM | TGI (CCRF-CEM leukemia): 16.5 µM | TGI (MALME-3M melanoma): 33.9 µM | TGI (IGROV1 ovarian): 26.8 µM | TGI (OVCAR-3 ovarian): 46.7 µM | TGI (DU-145 prostate): 23.5 µM
